Experiments:
rats = experiment: Irwin test and body temperature (GLP); format: in vivo; conditions: rats, 2, 9 and 36 mg kg^−1 oral
Experimental: The study involved four groups of six male Wistar rats weighing between 154.0 g and 185.9 g. […] On study day, animals were first scored by the Irwin standardized observation battery, and body temperature was measured. […] Irwin scores and measurement of body temperature were done again at 1, 3, 6, 8 and 24 h after dose.

DIO mice = experiment: Food intake and body weight in diet-induced obese mice, repeated treatment; format: in vivo; conditions: mice, acute and repeated 28 d, highest dose tested 15 mg/kg
Experimental: Body weight and food intake were studied because they are reduced by repeated treatment with rimonabant both in mice[31] and in humans. DIO mice were used because the effects of CB1 antagonists are of greater amplitude in obese mice than in lean mice. Male C57BL/6J mice (8 weeks old) were fed ad libitum with a high-fat diet (HFD) for 8 weeks before the start of the pharmacological treatments. During pharmacological treatments, the HFD was maintained, and food intake and body weight were measured daily. The food consumed was calculated by subtracting the food left in the hoppers from the initial pre-weighed amount.

COc1ccc(CO[C@H]2CC[C@@]3(C)C(=CC[C@H]4[C@@H]5CC[C@H](C(C)=O)[C@@]5(C)CC[C@@H]43)C2)cc1 [AEF0117, 3β-(4-methoxybenzyloxy)pregn-5-en-20-one]
effect on spontaneous behavior in the home cage (Irwin test) (rats): had no effect | Overall effect: inhibition of spontaneous food-intake (DIO mice): No
